Source: US20150374779A1, “PHARMACOLOGIC TREATMENTS OF MENIÉRE'S DISEASE” (priority 2014, published 2015)
Where no end group is shown, it is not given here. [ ]: non-standard residue; d: D form.

Key:
[1] = tested on: ASNHL-related tinnitus; assay: double-blind, randomized, placebo-controlled phase II study of AM-111 in ASNHL and associated tinnitus; type: in vivo, human; conditions: for Complete ASNHL-Related Tinnitus Remission in the Treated Ear, Frequency (%): mITT; for Number of Subjects with Tinnitus/Number of Subjects with Observation (%): Day 90, placebo 28/50 (56.0)
Method: A double-blind, randomized, placebo-controlled phase II study was conducted to evaluate the efficacy and safety of AM-111 in treating ASNHL and associated tinnitus. Eligible participants were aged 18 to 60 years and suffered from ASNHL (unilateral idiopathic sudden sensorineural hearing loss (ISSNHL), uni- or bilateral acute acoustic trauma (AAT)) with hearing loss of at least 30 dB and onset not more than 48 hours previously. The hearing loss was determined against a reference value: mean hearing threshold at the 3 most affected contiguous test frequencies (pure tone average, PTA) less corresponding mean hearing threshold of the contralateral ear (Plontke et al., 2007). In case of previously asymmetric hearing or bilateral ASNHL, thresholds from a previous audiogram or ISO-7029; 2000 norm values served as reference. The PTA frequencies determined at baseline remained fixed for all evaluations.
Exclusion criteria included history of Meniére's disease, autoimmune or radiation induced hearing […] loss, endolymphatic hydrops or fluctuating hearing loss, suspected perilymph fistula, membrane rupture or retrocochlear lesion, barotrauma, air-bone gap >20 dB in 3 contiguous frequencies, previous ASNHL incident within the past 6 weeks, and acute or chronic otitis media or otitis externa. Women who were breast feeding, pregnant or who planned a pregnancy during the study, or women of childbearing potential who declared being unwilling or unable to practice an effective method of […] contraception were excluded. Written informed consent was obtained from each patient prior to the performance of any study-specific procedures.
At baseline (Day 0), study participants were randomized to receive AM-111 (0.4 or 2.0 mg/mL) or placebo at a 2:1 ratio. The study consisted of a baseline assessment and 4 follow-up visits on Days 3, 7, 30, and 90. Baseline assessments included a general physical examination, vital signs, and a urine pregnancy test for women of childbearing age. At each study visit pure tone hearing thresholds, speech discrimination at 60 and 80 dB, and subjective tinnitus loudness were determined. Those patients reporting tinnitus were asked to rate its loudness “right now” on a numerical scale ranging from 0 (no tinnitus) to 10 (extremely loud).
Approximately 0.25 mL of the study drug was administered on Day 0 by intratympanic (i.t.) injection under local anesthesia through a small myringotomy with the patient's head placed in a position tilted 45° towards the unaffected ear. Patients remained in their reclined or supine position for approximately 30 minutes to allow for diffusion of the active substance into the cochlea. In case of bilateral AAT, only the worst affected ear was treated. Subjects whose PTA recovered <10 dB from baseline to Day 7 were given the option to receive oral prednisolone 50 mg (Ratiopharm, Ulm, Germany) b.i.d. for 5 days.
The sample size was determined based on an expected effect size of 0.6, a two-sided type I error rate of 5% and a statistical power of 80%.
Efficacy analyses were primarily performed on a modified “Intention to treat” (mITT) analysis set (treated patients with PTA measured on Day 3±1 or Day 7+4 days at most) and secondarily on the “Per Protocol” (PP) analysis set. The “Safety Population” analysis set included all patients who received an injection of the study medication. Random imputation was performed for missing PTA values at Days 7 and 30, and missing speech discrimination score (SDS) values at Day 7 based on the preceding value and the mean change observed in the respective treatment group (mITT set).
For continuous efficacy endpoints, analysis of covariance (ANCOVA) models were used including treatment group and initial frequency range as class effects, and baseline values of the respective endpoint as covariate. For the complete recovery rate, a logistic regression model was applied including treatment, initial frequency range, and baseline hearing loss as predictor variables. […]

[2] = tested on: models of cochlear insult; conditions: acute noise trauma, acute labyrinthitis, aminoglycoside ototoxicity, bacterial infection, cochlear ischemia, cochlear implantation trauma; cited from earlier work
[3] = tested on: KOS strain of HSV-1; assay: single cycle herpes simplex virus infection assay (virus yield), ATRA-differentiated SH-SY5Y human neuroblastoma cells; type: cell-based; conditions: for activity at 40 µM: Human alphaherpesvirus 1, Neuroblastoma cell; for virus yield, % of control: DMSO = 100
Method: (§1) A single cycle herpes simplex virus infection assay was performed to determine the effect of JNK inhibitors on virus yield.
(§2) To prepare a 1 mM stock solution, 5.15 mg of D-JNKI-1 acetate was suspended in 1 ml of water, vortexed for 2 minutes, and sterilized by passage through a PES filter; 50 μL aliquots were prepared and stored at −20° C.
(§3) Human neuroblastoma cells (SH-SY5Y) were maintained in DMEM plus 10% fetal calf serum, 1 mM HEPES (Gibco) and 2 μg/ml gentamicin (Gibco). For differentiation, monolayers of cells were rinsed in PBS and then maintained in Neurobasal medium (Gibco) plus 2% B27 supplement and […] all-trans retinoic acid (ATRA). Primary fetal rat cortex cells were maintained in Neurobasal medium plus 2% B27, 2 mM glutamine and […] gentamicin.
(§4) Monolayers of SH-SY5Y human neuroblastoma cells differentiated by treatment with ATRA, or fetal rat cortex neurons were pre-treated with 10-20 μM D-JNKI-1, 40 μM SP600125 (Calbiochem), or DMSO (D2650, Sigma-Aldrich) vehicle control for 30 minutes prior to infection. Monolayers were infected with the KOS strain of HSV-1 at a multiplicity of infection (MOI) of 5 for 60 minutes under conditions of pre-treatment. Following the inoculation period, monolayers were incubated under pre-treatment conditions and harvested at 20 hours postinfection.
(§5) Cells and media were collected, and subjected to three rounds of freezing and thawing. Serial ten-fold dilutions were prepared and aliquots seeded in triplicate onto monolayers of Vero cells. Following a 60-minutes infection period, the inoculum was removed and replaced with medium containing 0.3% methyl cellulose. After 3 days, the overlay was removed and the cell monolayer stained with 0.8% crystal violet in 50% ethanol and plaques counted to determine virus yield. Results were presented as % of yield relative to control conditions (DMSO vehicle treatment).

[4] = tested on: KOS strain of HSV-1; assay: single cycle herpes simplex virus infection assay (virus yield), fetal rat cortex neurons; type: cell-based; conditions: for Pfu/culture: MOI 5, harvest 20 h postinfection, DMSO 1.33 × 10^6
Method: as §1, §2, §3, §4, §5

[5] = tested on: wild type HSV-1 (KOS); assay: Western blot assay of accumulation of HSV-1 viral proteins (IE, E, L classes) in SH-SY5Y cells and rat fetal cortex neurons; type: cell-based; conditions: 10 μM; both SH-SY5Y cells and fetal cortex neurons; 8 h post infection
Method: Cell monolayers were pretreated either with DMSO (DM, vehicle control), or the JNK inhibitors D-JNKI-1 (AM, 10 μM) or SP600125 (SP, 40 μM), then infected in the presence of drug for 60 minutes and finally in the presence of drug until the time of harvest, 8 hours post infection. Western blot for tubulin served as a loading control.
The ability of JNK inhibitors to affect accumulation of viral proteins representative of the immediate-early (IE), early (E) or late (L) kinetic classes was evaluated by a Western blot assay.
Unless indicated otherwise, the same materials and methods were applied as for the experiment described under Example 1 and as laid out by Hargett et al., 2005.
Replicate monolayers of rat fetal cortex neurons or ATRA-differentiated SH-SY5Y cells were pre-treated with DMSO, D-JNKI-1 (10 μM) or […] (40 μM) for 30 minutes, and then infected with wild type HSV-1 (KOS) or ICP27 null mutant d27 at a multiplicity of infection (MOI) of 5, or mock-infected under pre-treatment conditions for 60 minutes. The inoculum was removed and incubation continued under the pretreatment conditions until the time of harvest. Whole cell lysates were prepared at 8 h post infection. Aliquots of lysates were separated on 12% gels by standard polyacrylamide gel electrophoresis (SDS-PAGE) procedures. […]

[6] = tested on: reovirus T3D; conditions: cited from earlier work

## DQSRPVQPFLNLTTPRKPRPPRRRQRRKKRG (SEQ ID NO: 2) ([dD][dQ][dS][dR][dP][dV][dQ][dP][dF][dL][dN][dL][dT][dT][dP][dR][dK][dP][dR][dP][dP][dR][dR][dR][dQ][dR][dR][dK][dK][dR]G) [AM-111, 31-amino acid cell-permeable peptide, formulated in a biocompatible hyaluronic acid gel]
[1]; All Subjects, 0.4 mg/mL, N = 50, Time point: Overall (90 days), placebo 28 (54.9%), p 0.151
  Complete ASNHL-Related Tinnitus Remission in the Treated Ear, Frequency (%): 35 (70.0%)
[1]; All Subjects, 2.0 mg/mL, N = 56, Overall, placebo 28 (54.9%), p 1.000
  Complete ASNHL-Related Tinnitus Remission in the Treated Ear, Frequency (%): 31 (55.4%)
[1]; 0.4 mg/mL i.t.
  Number of Subjects with Tinnitus/Number of Subjects with Observation (%): 38.0%
[1]; 2.0 mg/mL i.t.
  Number of Subjects with Tinnitus/Number of Subjects with Observation (%): 51.9%
[1]; Mild to Moderate Subgroup, 0.4 mg/mL, N = 25, Overall, placebo 22 (78.6%), p 0.732
  Complete ASNHL-Related Tinnitus Remission in the Treated Ear, Frequency (%): 21 (84.0%)
[1]; Mild to Moderate Subgroup, 2.0 mg/mL, N = 27, Overall, placebo 22 (78.6%), p 0.245
  Complete ASNHL-Related Tinnitus Remission in the Treated Ear, Frequency (%): 17 (63.0%)
[1]; subgroup mild to moderate hearing loss, 0.4 and 2.0 mg/mL
  complete tinnitus remission, difference between AM-111 treatment groups and placebo: no statistically significant differences
[2]
  otoprotection: otoprotective

## Oc1c2ccccc2c2c3c(cccc13)N=N2 [SP600125, reference compound]
[3]; First experiment, 40 μM, MOI 5, harvest 20 h postinfection, DMSO 3.5 × 10^5
  Pfu/culture: 2.57 × 10^5 Pfu/culture
[3]; read-out: virus yield, % of control, First experiment, 40 μM, DMSO = 100
  activity at 40 µM: 72%
[3]; read-out: virus yield, % of control, Second experiment, 40 μM, DMSO = 100
  activity at 40 µM: 20%
[3]; Second experiment, 40 μM, DMSO 8.5 × 10^5
  Pfu/culture: 1.76 × 10^5 Pfu/culture
[4]; 40 μM, fetal rat neurons
  Pfu/culture: 8.0 × 10^5 Pfu/culture
[4]; Human alphaherpesvirus 1, Neuron, 40 μM, fetal rat neurons, DMSO = 100, read-out: virus yield, % of control
  activity at 40 µM: 60%

## DQSRPVQPFLNLTTPRKPRPPRRRQRRKKRG (SEQ ID NO: 2) (not fully specified (some residues); also: D-amino acids (positions not given here)) [D-JNKI-1]
[3]
  virus yield (in words): substantially reduced
[3]; First experiment, 10 μM
  virus yield, % of control: 37%
[3]; First experiment, 10 μM, MOI 5, harvest 20 h postinfection, DMSO 3.5 × 10^5
  Pfu/culture: 1.27 × 10^5 Pfu/culture
[3]; Second experiment, 10 μM, DMSO 8.5 × 10^5
  Pfu/culture: 2.23 × 10^5 Pfu/culture
[3]; Second experiment, 10 μM
  virus yield, % of control: 26%
[3]; Second experiment, 20 μM, DMSO 8.5 × 10^5
  Pfu/culture: 2.06 × 10^5 Pfu/culture
[3]; Second experiment, 20 μM
  virus yield, % of control: 24%
[4]; 10 μM, fetal rat neurons, DMSO = 100
  virus yield, % of control: 12%
[4]; 10 μM, fetal rat neurons
  Pfu/culture: 1.67 × 10^5 Pfu/culture
[4]; rat cortex neurons
  virus yield (in words): substantially reduced
[5]
  L (gC and Us11) protein accumulation: severe reduction
  accumulation of IE (ICP27) and E (ICP8) proteins: moderate reductions
[6]; otherwise lethal challenge with T3D (100×50% lethal dose)
  survival of intracerebrally infected mice: significantly prolonged survival
[6]; reovirus-infected mice
  CNS injury: reduced CNS injury
  c-Jun activation: reduced c-Jun activation
  neuronal apoptosis: reduced neuronal apoptosis
  viral titer or viral antigen distribution: without altering
